Measurements from PubChem BioAssay (NCI).
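Grown in 96-well plates, cells were treated for 48 hours with each compound at five concentrations. Insufficient inhibition: endpoint recorded as highest concentration tested. TGI marks complete inhibition of growth.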

What was measured:
Experiment in all cases: growth of human tumour cells (NCI), 48 h
786-0 renal = tested on: 786-0 renal
A498 renal = tested on: A498 renal
A549 NSCLC = tested on: A549 NSCLC
ACHN renal = tested on: ACHN renal
BT-549 breast = tested on: BT-549 breast
CAKI-1 renal = tested on: CAKI-1 renal
CCRF-CEM leukemia = tested on: CCRF-CEM leukemia
COLO 205 colon = tested on: COLO 205 colon
DU-145 prostate = tested on: DU-145 prostate
EKVX NSCLC = tested on: EKVX NSCLC
HCT-116 colon = tested on: HCT-116 colon
HCT-15 colon = tested on: HCT-15 colon
HOP-62 NSCLC = tested on: HOP-62 NSCLC
HOP-92 NSCLC = tested on: HOP-92 NSCLC
HS 578T breast = tested on: HS 578T breast
HT29 colon = tested on: HT29 colon
IGROV1 ovarian = tested on: IGROV1 ovarian
K-562 leukemia = tested on: K-562 leukemia
KM12 colon = tested on: KM12 colon
LOX IMVI melanoma = tested on: LOX IMVI melanoma
M14 melanoma = tested on: M14 melanoma
MALME-3M melanoma = tested on: MALME-3M melanoma
MCF7 breast = tested on: MCF7 breast
MDA-MB-231 breast = tested on: MDA-MB-231 breast
MDA-MB-435 = tested on: MDA-MB-435
MDA-N = tested on: MDA-N
MOLT-4 leukemia = tested on: MOLT-4 leukemia
NCI-H23 lung = tested on: NCI-H23 lung
NCI-H460 lung = tested on: NCI-H460 lung
NCI-H522 lung = tested on: NCI-H522 lung
NCI/ADR-RES ovarian = tested on: NCI/ADR-RES ovarian
OVCAR-3 ovarian = tested on: OVCAR-3 ovarian
OVCAR-4 ovarian = tested on: OVCAR-4 ovarian
OVCAR-5 ovarian = tested on: OVCAR-5 ovarian
OVCAR-8 ovarian = tested on: OVCAR-8 ovarian
PC-3 prostate = tested on: PC-3 prostate
RPMI-8226 leukemia = tested on: RPMI-8226 leukemia
RXF 393 renal = tested on: RXF 393 renal
SF-268 CNS = tested on: SF-268 CNS
SF-295 CNS = tested on: SF-295 CNS
SF-539 CNS = tested on: SF-539 CNS
SK-MEL-2 melanoma = tested on: SK-MEL-2 melanoma
SK-MEL-28 melanoma = tested on: SK-MEL-28 melanoma
SK-MEL-5 melanoma = tested on: SK-MEL-5 melanoma
SK-OV-3 ovarian = tested on: SK-OV-3 ovarian
SN12C renal = tested on: SN12C renal
SNB-19 CNS = tested on: SNB-19 CNS
SNB-75 CNS = tested on: SNB-75 CNS
SR leukemia = tested on: SR leukemia
SW-620 colon = tested on: SW-620 colon
T-47D breast = tested on: T-47D breast
TK-10 renal = tested on: TK-10 renal
U251 CNS = tested on: U251 CNS
UACC-257 melanoma = tested on: UACC-257 melanoma
UACC-62 melanoma = tested on: UACC-62 melanoma
UO-31 renal = tested on: UO-31 renal
HCC-2998 colon = tested on: HCC-2998 colon
HL-60(TB) leukemia = tested on: HL-60(TB) leukemia
NCI-H226 lung = tested on: NCI-H226 lung

## CC(C)(C)c1ccc(O)c(CN(Cc2cc(C(C)(C)C)ccc2O)c2ccccc2)c1
786-0 renal
  TGI: 30.7 µM
A498 renal
  TGI: 28.1 µM
A549 NSCLC
  TGI: 35.9 µM
ACHN renal
  TGI: 35.5 µM
BT-549 breast
  TGI: 36.4 µM
CAKI-1 renal
  TGI: > 100 µM
CCRF-CEM leukemia
  TGI: > 100 µM
COLO 205 colon
  TGI: 30.9 µM
DU-145 prostate
  TGI: 38.3 µM
EKVX NSCLC
  TGI: 37.1 µM
HCT-116 colon
  TGI: 33.9 µM
HCT-15 colon
  TGI: 35.8 µM
HOP-62 NSCLC
  TGI: 47.6 µM
HOP-92 NSCLC
  TGI: 30.7 µM
HS 578T breast
  TGI: 42 µM
HT29 colon
  TGI: 35.3 µM
IGROV1 ovarian
  TGI: 47.7 µM
K-562 leukemia
  TGI: 31.9 µM
KM12 colon
  TGI: 66.7 µM
LOX IMVI melanoma
  TGI: 26.8 µM
M14 melanoma
  TGI: 28.2 µM
MALME-3M melanoma
  TGI: 29.9 µM
MCF7 breast
  TGI: 38.9 µM
MDA-MB-231 breast
  TGI: 31.7 µM
MDA-MB-435
  TGI: 36.4 µM
MDA-N
  TGI: 30.4 µM
MOLT-4 leukemia
  TGI: 37.8 µM
NCI-H23 lung
  TGI: 40.8 µM
NCI-H460 lung
  TGI: 30.9 µM
NCI-H522 lung
  TGI: 26.9 µM
NCI/ADR-RES ovarian
  TGI: 37.6 µM
OVCAR-3 ovarian
  TGI: 34.1 µM
OVCAR-4 ovarian
  TGI: 61.8 µM
OVCAR-5 ovarian
  TGI: 31.8 µM
OVCAR-8 ovarian
  TGI: 37.5 µM
PC-3 prostate
  TGI: 42.1 µM
RPMI-8226 leukemia
  TGI: 47.7 µM
RXF 393 renal
  TGI: 27.5 µM
SF-268 CNS
  TGI: 38.3 µM
SF-295 CNS
  TGI: 37.4 µM
SF-539 CNS
  TGI: 32 µM
SK-MEL-2 melanoma
  TGI: 33.3 µM
SK-MEL-28 melanoma
  TGI: 32.4 µM
SK-MEL-5 melanoma
  TGI: 28.5 µM
SK-OV-3 ovarian
  TGI: 84.8 µM
SN12C renal
  TGI: 32.1 µM
SNB-19 CNS
  TGI: 31.5 µM
SNB-75 CNS
  TGI: 52.4 µM
SR leukemia
  TGI: 38.1 µM
SW-620 colon
  TGI: 37.6 µM
T-47D breast
  TGI: 42.8 µM
TK-10 renal
  TGI: 31.5 µM
U251 CNS
  TGI: 28.4 µM
UACC-257 melanoma
  TGI: 12.4 µM
UACC-62 melanoma
  TGI: 28.4 µM
UO-31 renal
  TGI: 29.2 µM

## N#Cc1c(Cl)c2cc([N+](=O)[O-])ccc2n2c1nc1ccccc12
A498 renal
  TGI: > 55.6 µM
A549 NSCLC
  TGI: > 100 µM
ACHN renal
  TGI: 13.6 µM
BT-549 breast
  TGI: 34.4 µM
CAKI-1 renal
  TGI: 4.78 µM
CCRF-CEM leukemia
  TGI: 4.27 µM
COLO 205 colon
  TGI: 4.67 µM
DU-145 prostate
  TGI: 18.4 µM
EKVX NSCLC
  TGI: 34.2 µM
HCC-2998 colon
  TGI: 19.4 µM
HCT-116 colon
  TGI: > 100 µM
HCT-15 colon
  TGI: 2.3 µM
HL-60(TB) leukemia
  TGI: 0.58 µM
HOP-62 NSCLC
  TGI: 47.4 µM
HS 578T breast
  TGI: 18 µM
HT29 colon
  TGI: 18.4 µM
K-562 leukemia
  TGI: > 36.7 µM
KM12 colon
  TGI: 42.8 µM
LOX IMVI melanoma
  TGI: 3.05 µM
M14 melanoma
  TGI: 4.41 µM
MALME-3M melanoma
  TGI: 24.1 µM
MCF7 breast
  TGI: 4.56 µM
MDA-MB-231 breast
  TGI: 0.858 µM
MDA-MB-435
  TGI: 4.65 µM
MDA-N
  TGI: > 100 µM
NCI-H226 lung
  TGI: 34.3 µM
NCI-H23 lung
  TGI: 35.8 µM
NCI-H460 lung
  TGI: 38.5 µM
NCI-H522 lung
  TGI: 4.71 µM
NCI/ADR-RES ovarian
  TGI: 28 µM
OVCAR-3 ovarian
  TGI: 29.6 µM
OVCAR-4 ovarian
  TGI: 3.58 µM
OVCAR-5 ovarian
  TGI: 16.5 µM
OVCAR-8 ovarian
  TGI: 10.6 µM
PC-3 prostate
  TGI: 12.5 µM
RPMI-8226 leukemia
  TGI: > 22.5 µM
RXF 393 renal
  TGI: 5.39 µM
SF-268 CNS
  TGI: 13.6 µM
SF-295 CNS
  TGI: 62.4 µM
SF-539 CNS
  TGI: 4.28 µM
SK-MEL-2 melanoma
  TGI: 36.4 µM
SK-MEL-28 melanoma
  TGI: 30 µM
SK-MEL-5 melanoma
  TGI: 44.4 µM
SK-OV-3 ovarian
  TGI: 54.5 µM
SN12C renal
  TGI: > 100 µM
SNB-19 CNS
  TGI: 20.3 µM
SNB-75 CNS
  TGI: 24.6 µM
T-47D breast
  TGI: 4.8 µM
TK-10 renal
  TGI: 8.95 µM
U251 CNS
  TGI: > 100 µM
UACC-257 melanoma
  TGI: 56 µM
UACC-62 melanoma
  TGI: 35.4 µM
UO-31 renal
  TGI: 6.82 µM
